Active and inactive are the calls of the source. The rule behind the calls is not given here.
Columns and labels:
[1] = tested on: U-87 MG; assay: Antiproliferative activity against human U87 cells assessed as cell viability measured after 72 hrs by MTT assay; assay type: functional, cell-based, U-87MG ATCC
[2] = tested on: U-251; assay: Antiproliferative activity against human U-251 cells assessed as cell viability measured after 72 hrs by MTT assay; assay type: functional, cell-based; settings: for IC50: U-251, 72 h
[3] = Permeability coefficient of compound by lipid-PAMPA assay; assay type: ADME
[4] = tested on: U-251; assay: Antiproliferative activity against human U-251 cells assessed as inhibition rate at 20 uM measured after 72 hrs by MTT assay relative to control; assay type: functional
[5] = tested on: U-87 MG; assay: Antiproliferative activity against human U87 cells assessed as inhibition rate at 20 uM measured after 72 hrs by MTT assay relative to control; assay type: functional, U-87MG ATCC

| IC50 [1] [µM] | IC50 [2] [µM] | SMILES | also measured |
| --- | --- | --- | --- |
| 8.5 | 3.6 | O=C(/C=C/c1ccc(C(=O)N2CCN(Cc3ccccc3)C23COC3)cc1)c1ccsc1 |  |
| 2.6 | 2 | COc1ccc(C(=O)/C=C/c2cccc(C(=O)N3CCN(Cc4ccccc4)C34COC4)c2)cc1 |  |
| 10.5 | 6 | O=C(/C=C/c1ccc(C(=O)N2CCN(Cc3ccccc3)C23COC3)o1)c1ccncc1 |  |
| 14.6 | 13.9 | O=C(CBr)N1CCN(Cc2ccccc2)C12COC2 | Papp ([3]; read-out: Peff): 26.9 ×10⁻⁶ cm/s; inhibition at 20 µM [4]: 63.9%; inhibition at 20 µM [5]: 74.3% |
| 5.3 | 5.3 | O=C(/C=C/c1ccc(C(=O)N2CCN(Cc3ccccc3)C23COC3)cc1)c1ccncc1 |  |
| > 10 | 12.6 | O=C(/C=C/c1ccc(C(=O)N2CCN(Cc3ccccc3)C23COC3)o1)c1ccsc1 |  |
| 7.2 | 6.2 | O=C(/C=C/c1cccc(C(=O)N2CCN(Cc3ccccc3)C23COC3)c1)c1ccncc1 |  |
|  |  | COc1cc(C(=O)CCc2ccc(C(=O)N3CCN(Cc4ccccc4)C34COC4)cc2)cc(OC)c1OC | Activity [2]: Active |
| > 10 | > 10 | COc1ccc(C(=O)/C=C/c2ccccc2C(=O)N2CCN(Cc3ccccc3)C23COC3)cc1OC |  |
| 4.1 | 1.9 | O=C(/C=C/c1ccc(C(=O)N2CCN(Cc3ccccc3)C23COC3)s1)c1ccsc1 |  |
| 3 | 3.3 | O=C(/C=C/c1ccncc1)c1ccc(C(=O)N2CCN(Cc3ccccc3)C23COC3)cc1 |  |
| 3.7 | 1.8 | COc1ccc(C(=O)/C=C/c2ccc(C(=O)N3CCN(Cc4ccccc4)C34COC4)cc2)cc1OC |  |
| 3.1 | 2.1 | O=C(/C=C/c1cccc(C(=O)N2CCN(Cc3ccccc3)C23COC3)c1)c1ccccc1 |  |
| > 10 | 11.6 | COc1ccc(C(=O)/C=C/c2ccccc2C(=O)N2CCN(Cc3ccccc3)C23COC3)cc1 |  |
| > 50 | > 50 | Cn1nnc2c(C(N)=O)ncn2c1=O [TEMOZOLOMIDE] | Peff [3]: 0.002 10^-6 cm/s |
| 5 | 3 | O=C(/C=C/c1ccc(C(=O)N2CCN(Cc3ccccc3)C23COC3)cc1)c1ccccc1 |  |
| 2 | 1.4 | COc1cc(/C=C/C(=O)c2ccc(C(=O)N3CCN(Cc4ccccc4)C34COC4)s2)cc(OC)c1OC |  |
| 6.3 | 5.4 | N#Cc1ccc(C(=O)/C=C/c2ccc(C(=O)N3CCN(Cc4ccccc4)C34COC4)cc2)cc1 |  |

Reference: ChEMBL document CHEMBL5620401, “Design, synthesis, and biological evaluation of novel spirocyclic compounds as potential anti-glioblastoma agents” (Eur J Med Chem, 2023)
